Data published in PMC9785202, “Changes in Disposition of Ezetimibe and Its Active Metabolites Induced by Impaired Hepatic Function: The Influence of Enzyme and Transporter Activities” (Pharmaceutics, 2022).
Read-outs that look alike come from different tables or passages of the source.

What was measured:
OAT1 = assay: Uptake of EZE-Ph into OAT1-transfected HEK293 cells; type: in vitro ADME, human; settings: 10 μM EZE-Ph
Description: Human OATP1B1-, OATP1B3-, OATP2B1-, OAT1-, OAT3-, or OCT2-transfected HEK293 cells and vector-transfected control cells (mock) were constructed at HD Biosciences Co., Ltd. (Shanghai, China). The functions of these transporters were evaluated using relevant positive substrates and inhibitors. Estradiol-17β-glucuronide (5 μM, OATP1B1 and OATP1B3), estrone 3-sulfate sodium salt (E3S, 5 μM, OATP2B1), para-aminohippuric acid (PAH, 20 μM, OAT1), furosemide (5 μM, OAT3), and 1-methyl-4-phenyl pyridinium (MPP^+, 5 μM, OCT2) were used as substrates for the transporters. […] The cells (50,000 per well) were cultured in Dulbecco’s modified Eagle’s medium (containing 10% fetal bovine serum, 1% GlutaMAX-I, 1% penicillin G/streptomycin, and 1% nonessential amino acids) on poly-D-lysine-coated 96-well plates at 37 °C in an atmosphere of 5% CO2.
The cells were rinsed three times with HBSS (37 °C) and then equilibrated in HBSS for 10 min. […] The protein content was measured using a BCA protein assay kit. The concentrations of EZE and EZE-Ph were determined using LC-MS/MS.
The rates of substrate uptake were normalized using the protein contents of cell lysates. The net uptake via transporters was calculated by subtracting the uptake in vector-transfected HEK293 cells (or uptake into hepatocytes at 4 °C) from that in transporter-transfected HEK293 cells (or uptake into hepatocytes at 37 °C).

OATP2B1 = target: T1, OATP2B1 (Homo sapiens, UniProt O94956); assay: Uptake of EZE-Ph into OATP2B1-transfected HEK293 cells; type: in vitro ADME
T1 construct: host or cells: HEK293
T1 sequence (O94956 1-709): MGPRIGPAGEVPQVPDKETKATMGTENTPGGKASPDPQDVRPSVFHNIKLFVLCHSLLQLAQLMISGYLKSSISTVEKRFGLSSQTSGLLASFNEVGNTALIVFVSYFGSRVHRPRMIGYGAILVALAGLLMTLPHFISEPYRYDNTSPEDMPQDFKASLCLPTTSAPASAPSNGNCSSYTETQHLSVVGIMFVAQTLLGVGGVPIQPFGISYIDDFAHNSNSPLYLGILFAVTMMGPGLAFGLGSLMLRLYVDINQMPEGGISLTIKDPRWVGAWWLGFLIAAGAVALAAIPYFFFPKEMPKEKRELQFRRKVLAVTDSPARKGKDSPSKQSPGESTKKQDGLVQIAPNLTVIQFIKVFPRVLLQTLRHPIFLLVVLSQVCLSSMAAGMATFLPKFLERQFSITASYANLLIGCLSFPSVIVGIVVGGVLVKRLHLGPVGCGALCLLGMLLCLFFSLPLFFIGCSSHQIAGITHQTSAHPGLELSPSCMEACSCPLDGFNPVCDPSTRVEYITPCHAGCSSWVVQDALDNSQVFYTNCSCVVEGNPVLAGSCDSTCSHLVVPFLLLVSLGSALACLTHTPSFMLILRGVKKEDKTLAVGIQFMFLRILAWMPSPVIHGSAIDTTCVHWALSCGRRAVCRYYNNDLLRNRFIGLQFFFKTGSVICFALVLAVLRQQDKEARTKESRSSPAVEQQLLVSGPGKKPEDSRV
Description: (§1) The kinetic parameters and the half inhibitory concentration (IC50) were calculated using GraphPad Prism. […] The intrinsic clearance (CLint) was calculated as CLint = Vmax/Km.

OAT3 = target: T2, OAT3 (Homo sapiens, UniProt Q8TCC7); assay: Uptake of EZE-Ph into OAT3-transfected HEK293 cells; type: in vitro ADME
T2 construct: host or cells: HEK293
T2 sequence (Q8TCC7 1-542): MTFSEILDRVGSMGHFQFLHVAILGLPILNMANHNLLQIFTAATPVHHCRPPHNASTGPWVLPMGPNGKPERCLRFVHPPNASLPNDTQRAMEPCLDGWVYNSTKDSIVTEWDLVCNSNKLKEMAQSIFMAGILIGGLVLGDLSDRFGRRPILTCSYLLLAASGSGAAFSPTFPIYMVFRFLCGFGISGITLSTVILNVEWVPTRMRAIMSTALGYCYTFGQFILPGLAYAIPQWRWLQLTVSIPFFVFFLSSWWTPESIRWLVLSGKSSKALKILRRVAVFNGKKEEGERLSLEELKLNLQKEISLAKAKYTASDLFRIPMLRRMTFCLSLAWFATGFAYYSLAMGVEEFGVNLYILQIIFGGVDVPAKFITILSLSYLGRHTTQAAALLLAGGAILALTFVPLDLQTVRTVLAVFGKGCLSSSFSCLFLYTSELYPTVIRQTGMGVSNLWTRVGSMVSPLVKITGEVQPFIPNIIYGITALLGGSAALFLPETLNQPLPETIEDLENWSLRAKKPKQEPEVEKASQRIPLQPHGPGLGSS
Description: as §1

OATP1B3 = target: T3, OATP1B3 (Homo sapiens, UniProt Q9NPD5); assay: Uptake of EZE-Ph into OATP1B3-transfected HEK293 cells; type: in vitro ADME; design: host or cells: HEK293
T3 sequence (Q9NPD5 1-702): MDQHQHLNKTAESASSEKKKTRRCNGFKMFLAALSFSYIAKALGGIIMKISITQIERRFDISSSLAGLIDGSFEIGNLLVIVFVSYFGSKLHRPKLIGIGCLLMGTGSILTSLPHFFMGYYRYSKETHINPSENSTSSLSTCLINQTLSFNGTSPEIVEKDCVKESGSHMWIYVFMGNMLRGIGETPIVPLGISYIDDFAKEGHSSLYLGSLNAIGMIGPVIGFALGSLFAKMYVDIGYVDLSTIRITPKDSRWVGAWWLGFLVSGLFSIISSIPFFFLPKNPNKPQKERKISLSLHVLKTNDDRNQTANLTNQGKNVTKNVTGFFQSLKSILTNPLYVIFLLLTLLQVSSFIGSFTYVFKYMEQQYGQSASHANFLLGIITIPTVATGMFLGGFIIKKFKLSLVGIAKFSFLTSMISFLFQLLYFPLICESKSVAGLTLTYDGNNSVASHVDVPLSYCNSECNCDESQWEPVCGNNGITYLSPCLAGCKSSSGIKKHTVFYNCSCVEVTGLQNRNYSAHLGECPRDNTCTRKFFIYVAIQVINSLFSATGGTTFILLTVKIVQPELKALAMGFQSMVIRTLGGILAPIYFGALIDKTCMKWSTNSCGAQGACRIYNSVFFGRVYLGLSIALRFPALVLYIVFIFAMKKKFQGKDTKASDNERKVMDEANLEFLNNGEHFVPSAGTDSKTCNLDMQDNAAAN
Description: as §1

[1] = design: method as in earlier work; settings: cited from earlier work
[2] = OATP1B3 HEK293, uptake time 5 min

SMILES	uptake in transporter-transfected cells relative to mock-transfected cells (OAT1)	uptake in transporter-transfected cells relative to mock-transfected cells (OATP2B1; 10 μM EZE-Ph, OATP2B1 HEK293) [times]	CLint (OATP2B1; OATP2B1 HEK293, CLint = Vmax/Km) [μL/min/mg Protein]	Kinetic Model (OATP2B1; OATP2B1 HEK293, uptake time 5 min)	uptake in transporter-transfected cells relative to mock-transfected cells (OAT3; 10 μM EZE-Ph, OAT3 HEK293) [times]	CLint (OAT3; OAT3 HEK293, CLint = Vmax/Km) [μL/min/mg Protein]	h (Hill slope) (OAT3; OAT3 HEK293, allosteric sigmoidal model)	Kinetic Model (OAT3; OAT3 HEK293, uptake time 5 min)	uptake in transporter-transfected cells relative to mock-transfected cells (OATP1B3; 10 μM EZE-Ph, OATP1B3 HEK293) [times]	CLint (OATP1B3; OATP1B3 HEK293, CLint = Vmax/Km) [μL/min/mg Protein]	Kinetic Model (OATP1B3; [2])	Vmax (OATP1B3; [2]) [pmol/min/mg Protein]	Km at 5 min (OATP1B3; human, OATP1B3-transfected HEK293 cells, OATP1B3 HEK293, uptake time 5 min) [µM]	plasma exposure, fold higher than in healthy subjects ([1]; mild CLD patients) [fold]	plasma exposure, fold higher than in healthy subjects ([1]; moderate CLD patients) [fold]	plasma exposure, fold higher than in healthy subjects ([1]; severe CLD patients) [fold]
O=C(O)[C@H]1O[C@@H](Oc2ccc([C@@H]3[C@@H](CC[C@H](O)c4ccc(F)cc4)C(=O)N3c3ccc(F)cc3)cc2)[C@H](O)[C@@H](O)[C@@H]1O [EZE-Ph, ezetimibe phenoxy β-D-glucuronide]	less than twice	3.7	0.56	Michaelis–Menten	8.9	1.84	1.19	Allosteric sigmoidal	56	6.73	Substrate inhibition	134	19.9			
O=C1[C@H](CC[C@H](O)c2ccc(F)cc2)[C@@H](c2ccc(O)cc2)N1c1ccc(F)cc1 [EZE, 1-(4-fluorophenyl)-3(R)-[3-(4-fluorophenyl)-3(S)-hydroxypropyl]-4(S)-(4-hydroxyphenyl)-2-azetidinone, reference compound]														1.4	5.8	4.8
